Here are results for 43 compounds from patent publication US20240417359A1, “PRECURSORS OF PHENOLIC FRAGRANT COMPOUNDS” (GIVAUDAN SA, priority 2021, published 2024).

This test is described as follows: Odour description on paper blotter. The note with it: 1% solution in EtOH on paper blotter, 24 h.
Turning to `CCOc1cc(C=O)ccc1OCCC=C(C)Cc1ccccc1` [Example 50, 3-ethoxy-4-((4-methyl-5-phenylpent-3-en-1-yl)oxy)benzaldehyde], the Odour description entry was “powdery, vanilla, ice cream”. For the compound `CCOc1cc(C)ccc1OCCC=C(C)CCC=C(C)CCC=C(C)C` [Example 65, 2-ethoxy-4-methyl-1-((4,8,12-trimethyltrideca-3,7,11-trien-1-yl)oxy)benzene], the Odour description result is “phenolic (medicinal, ultravanil, balsamic vanilla bean, cough syrup)”. The same measure for `CC/C=C\CC(C/C=C\CC)Oc1ccc(C=O)cc1OCC` [Example 41, 3-ethoxy-4-(((3Z,8Z)-undeca-3,8-dien-6-yl)oxy)benzaldehyde]: “vanilla, powdery”. The same measure for `C=CCC(Oc1ccc(C=O)cc1OCC)c1ccccc1` (stereo not shown) [Example 68, 3-ethoxy-4-((1-phenylbut-3-en-1-yl)oxy)benzaldehyde]: “powdery (vanilla), green”.

With `CC/C=C\CCCC/C=C/CCOc1ccc(C=O)cc1OCC` [Example 76, 4-(((3E,9Z)-dodeca-3,9-dien-1-yl)oxy)-3-ethoxybenzaldehyde], the Odour description entry is on record as “green, melon, powdery, vanilla”. For the compound `CCCCCCC(C/C=C\CCCCCCCC(=O)OC)Oc1ccccc1OC` (stereo not shown) [Example 45, methyl (Z)-12-(2-methoxyphenoxy)octadec-9-enoate], the Odour description entry is recorded as “phenolic, medicinal, guaiacol, vanilla absolute, peru balsam”.

For the compound `CC/C=C\C/C=C\CCOc1ccc(C=O)cc1OC` [Example 34, 3-methoxy-4-(((3Z,6Z)-nona-3,6-dien-1-yl)oxy)benzaldehyde], the Odour description entry is “green, leaf aldehyde, powdery, vanilla”.

As for `CCC=CCC(Oc1ccc(C=O)cc1OCC)C(=O)OCC` (stereo not shown) [Example 40, ethyl 2-(2-ethoxy-4-formylphenoxy)hept-4-enoate], the Odour description result is reported as “powdery (vanilla)”. On to `CCOc1cc(C=O)ccc1OCCC=C(C)CCC=C(C)C` [Example 60, 4-((4,8-dimethylnona-3,7-dien-1-yl)oxy)-3-ethoxybenzaldehyde], for which the Odour description entry is given as “gourmand (vanilla, rhum, vanilla bean) sweet (vanilla)”. The same measure for `CCCCCC(CC=Cc1ccccc1)Oc1ccc(C=O)cc1OCC` (stereo not shown) [Example 15, 3-ethoxy-4-((1-phenylnon-1-en-4-yl)oxy)benzaldehyde]: “powdery (vanilla)”; for `C=CCC(CCCCCCCCC)Oc1ccc(C=O)cc1OC` (stereo not shown) [Example 35, 3-methoxy-4-(tridec-1-en-4-yloxy)benzaldehyde]: “powdery, vanilla, aldehydic, green, metallic, mandarin”. The same measure for `C=CCC(CCCCCCCCCC)Oc1ccccc1C(=O)OC` (stereo not shown) [Example 25, methyl 2-(tetradec-1-en-4-yloxy)benzoate]: “aldehydic, metallic, green, citrus”.

As for `CCCCCC[C@@H](C/C=C\CCCCCCCC(=O)OC)Oc1cc(C)c(C(=O)OC)c(O)c1C` [Example 3, methyl (S,Z)-2-hydroxy-4-((18-methoxy-18-oxooctadec-9-en-7-yl)oxy)-3,6-dimethylbenzoate], the Odour description entry is listed as “powdery mossy, evernyl, green, fatty”.

For `CC=CCC(C)(Cc1ccccc1)Oc1ccc(C=O)cc1OCC` (stereo not shown) [Example 21, 3-ethoxy-4-((2-methyl-1-phenylhex-4-en-2-yl)oxy)benzaldehyde], the Odour description result is given as “powdery (vanilla) creamy (milky)”.

In the case of `CCOc1cc(C=O)ccc1OCCC=C(C)CCCc1ccccc1` [Example 58, 3-ethoxy-4-((4-methyl-7-phenylhept-3-en-1-yl)oxy)benzaldehyde], the Odour description entry was “powdery, vanilla, creamy, chocolate”. Then `CC(=O)CCc1ccc(OCCC=C(C)CCCc2ccccc2)cc1` [Example 59, 4-(4-((4-methyl-7-phenylhept-3-en-1-yl)oxy)phenyl)butan-2-one], with “powdery fruity, raspberry”; and `C=CCC(Oc1ccc(C=O)cc1OCC)C(C)=CCC` (stereo not shown) [Example 11, 3-ethoxy-4-((5-methylocta-1,5-dien-4-yl)oxy)benzaldehyde], with “powdery (vanilla)”.

For the compound `CCCCCCC=CC=CCC(CCCCCC)Oc1ccc(CCC(C)=O)cc1` (stereo not shown) [Example 9, 4-(4-((octadeca-9,11-dien-7-yl)oxy)phenyl)butan-2-one], the Odour description entry was “powdery fruity raspberry”.

`CC=CCC(CCCCCC)Oc1ccc(C=O)cc1OCC` (stereo not shown) [Example 43, 3-ethoxy-4-(undec-2-en-5-yloxy)benzaldehyde]: the Odour description entry was “powdery, creamy, vanilla”. The same measure for `CCOc1cc(C=O)ccc1OCC/C=C(\C)c1ccccc1` [Example 48, (E)-3-ethoxy-4-((4-phenylpent-3-en-1-yl)oxy)benzaldehyde]: “sweet, powdery, vanilla, ice cream”.

In the case of `CCOc1cc(C=O)ccc1OCC/C=C(\C)CC/C=C(\C)CCC=C(C)C` [Example 20, 3-ethoxy-4-(((3E,7E)-4,8,12-trimethyltrideca-3,7,11-trien-1-yl)oxy)benzaldehyde], the Odour description result is recorded as “vanilla (powdery, creamy, chocolate, gourmand)”.

As to `CC/C=C\C/C=C\CCOc1ccc2ccccc2c1` [Example 33, 2-(((3Z,6Z)-nona-3,6-dien-1-yl)oxy)naphthalene], the Odour description entry is “weak, green, leaf aldehyde”. For `CCCCC/C=C\CCOc1ccc(C=O)cc1OCC` [Example 64, (Z)-3-ethoxy-4-(non-3-en-1-yloxy)benzaldehyde], the Odour description result is recorded as “vanilla (powdery, spicy, creamy)”. For the compound `C=CCC(CCCCCC)Oc1ccc(CCC(C)=O)cc1` (stereo not shown) [Example 23, 4-(4-(dec-1-en-4-yloxy)phenyl)butan-2-one], the Odour description result is on record as “fruity (raspberry, gourmand) sugary”. For `CCC=CCC(CCCCCC)Oc1ccc(C=O)cc1OCC` (stereo not shown) [Example 44, 4-(dodec-3-en-6-yloxy)-3-ethoxybenzaldehyde], the Odour description entry is reported as “woody, cedarwood, vanilla”. The same measure for `C=CCC(C/C=C\CC)Oc1ccc(C=CC)cc1OC` (stereo not shown) [Example 13, 2-methoxy-1-(((Z)-nona-1,6-dien-4-yl)oxy)-4-(prop-1-en-1-yl)benzene]: “creamy, vanilla”; for `C=CCC(CCCCCCCCCC)Oc1ccc(C=O)cc1OCC` (stereo not shown) [Example 27, 3-ethoxy-4-(tetradec-1-en-4-yloxy)benzaldehyde]: “powdery, vanilla, aldehydic, metallic, green, citrus, mandarin”.

In the case of `CCOc1cc(C=O)ccc1OC(C)(C)CC=C=C(C)CCC=C(C)C` [Example 18, 3-ethoxy-4-((2,6,10-trimethylundeca-4,5,9-trien-2-yl)oxy)benzaldehyde], the Odour description result is reported as “vanilla powdery”.

Turning to `C=CCC(CCCCCC)Oc1ccc(C=O)cc1OCC` (stereo not shown) [Example 22, 4-(dec-1-en-4-yloxy)-3-ethoxybenzaldehyde], the Odour description entry was “dry powdery (cedarwood, vanilla)”. The same measure for `CCOc1cc(C=O)ccc1OC(C)C(C)/C=C/C1CC=C(C)C1(C)C` (stereo not shown) [Example 63, (E)-3-ethoxy-4-((3-methyl-5-(2,2,3-trimethylcyclopent-3-en-1-yl)pent-4-en-2-yl)oxy)benzaldehyde]: “woody, sandalwoody, hay”; for `CCOc1cc(C=O)ccc1OCCC=CCCc1ccccc1` [Example 85, 3-ethoxy-4-((6-phenylhex-3-en-1-yl)oxy)benzaldehyde]: “powdery, vanilla, creamy, balsamic, cinnamic”.

For `COc1ccc(C(C)=CCCOc2ccc(CCC(C)=O)cc2)cc1` [Example 53, 4-(4-((4-(4-methoxyphenyl)pent-3-en-1-yl)oxy)phenyl)butan-2-one], the Odour description result was “sweet powdery, anisic aldehyde, fruity, raspberry ketone”. Then `C=CCC(CCCCCCCCC)Oc1ccc(COC)cc1OCC` (stereo not shown) [Example 37, 2-ethoxy-4-(methoxymethyl)-1-(tridec-1-en-4-yloxy)benzene], with “citrus, mandarin, green”; and `CCCCCCC(CC=CCC(CCCCCC)Oc1ccc(CCC(C)=O)cc1)Oc1ccc(CCC(C)=O)cc1` (stereo not shown) [Example 10, 4,4′-((octadec-9-ene-7,12-diylbis(oxy))bis(4,1-phenylene))bis(butan-2-one)], with “powdery fruity raspberry”; and `C=CCc1ccc(OCCC=C(C)CCC=C(C)C)c(OC)c1` [Example 61, 4-allyl-1-((4,8-dimethylnona-3,7-dien-1-yl)oxy)-2-methoxybenzene], with “spicy”.

For `CC/C=C\C/C=C\CCOc1ccc(CCC(C)=O)cc1` [Example 31, 4-(4-(((3Z,6Z)-nona-3,6-dien-1-yl)oxy)phenyl)butan-2-one], the Odour description result is listed as “green, leaf aldehyde, green apple, fruity”. Then `CCOc1cc(C=O)ccc1OCCC=C(C)C1CCCC1` [Example 88, 4-((4-cyclopentylpent-3-en-1-yl)oxy)-3-ethoxybenzaldehyde], with “powdery, creamy, vanilla”; and `C=CCC(Oc1ccc(CCC(C)=O)cc1)c1ccccc1` (stereo not shown) [Example 8, 4-(4-((1-phenylbut-3-en-1-yl)oxy)phenyl)butan-2-one], with “fruity (powdery, sweet, raspberry)”. The same measure for `CC(=O)CCc1ccc(OCCC=C(C)CCC2=C(C)CCCC2(C)C)cc1` [Example 82, 4-(4-((4-methyl-6-(2,6,6-trimethylcyclohex-1-en-1-yl)hex-3-en-1-yl)oxy)phenyl)butan-2-one]: “fruity, sweet, powdery, raspberry ketone”. With `CCOc1cc(C=O)ccc1OC(C)(C)CC=C=C(C)C` [Example 16, 4-((2,6-dimethylhepta-4,5-dien-2-yl)oxy)-3-ethoxybenzaldehyde], the Odour description result is on record as “powdery (vanilla)”. Then “1-(dec-1-en-4-yloxy)-2-ethoxy-4-methylbenzene and 2-(dec-1-en-4-yloxy)-1-ethoxy-4-methylbenzene [Example 46]”, with “medicinal, phenolic, vanilla”.

Regarding `CC(=O)CCc1ccc(OCCC=C(C)CCc2ccc3c(c2)OCO3)cc1` [Example 80, 4-(4-((6-(benzo[d][1,3]dioxol-5-yl)-4-methylhex-3-en-1-yl)oxy)phenyl)butan-2-one], the Odour description entry was “fruity, raspberry, grenadine, berryflor, fresh, transparent”. Turning to `C=CCC(CCCCCCCCCC)Oc1ccccc1C(=O)CC` (stereo not shown) [Example 26, 1-(2-(tetradec-1-en-4-yloxy)phenyl)propan-1-one], the Odour description result is “aldehydic, metallic, green, citrus”.
